From patent publication US12492232B2, “Methods for producing proteins” (South Australian Health and Medical Research Institute …, priority 2018, dated 2025) come the findings set out here.

Assay [1] relates to mTORC1 localisation at the lysosome. As to the kind of experiment: Immunofluorescence of mTOR and LAMP1 colocalisation in serum-starved transfected CHO cells. In kind it is cell-based. Particulars: medium lacking FBS for 16 h. The method, then: 24 h after transfection cells were transferred to medium lacking FBS for 16 hours. Cells were fixed with 4% paraformaldehyde, permeabilized with 0.05% Triton X-100, blocked with 10% normal donkey serum before LAMP1 and then anti-mTOR antibodies were applied overnight. Alexa Fluor™ 488 and 594-labelled secondary antibodies were applied before cells were mounted and stained with DAPI.
24 h after transfection cells were transferred to medium lacking FBS for 16 h. Cells were fixed with 4% paraformaldehyde, permeabilized with 0.05% Triton X-100, blocked with 10% normal donkey serum before LAMP1 and mTOR antibodies were applied overnight. Alexa Fluor™ 488 and 594 secondary antibodies were applied before cells were mounted and stained with DAPI.

Another assay deals with TSC1/TSC2. Kind of assay: GAP assay: TSC1/TSC2-promoted hydrolysis of GTP bound to recombinant GST-Rheb. The class given is biochemical. As to conditions: FLAG-TSC1, FLAG-TSC2, [α-32P]GTP, n=3. The source says: FIGS. 1A-1B: Recombinant GST-Rheb proteins were subjected to GAP assay in the presence of FLAG-TSC1, FLAG-TSC2 and [α-^32P] GTP. GST-Rheb bound to GDP or GTP was pulled down using glutathione beads and the nucleotides were then separated by thin-layer chromatography and visualized by phosphorimager. The positions of GDP and GTP are shown (FIG. 1A). […] FIGS. 1C-1D: CHO cells were co-transfected using Lipofectamine 3000 with vectors encoding wildtype (WT) Rheb or the indicated mutants and TSC1/2 as indicated. 36 h after transfection, cells were transferred to Ham's F12 media lacking FBS for 16 h. Cells were the transferred to Dulbecco's phosphate-buffered saline (D-PBS, which lacks amino acids) for 1 h before cell lysates were harvested for SDS-PAGE and Western Blotting analysis using the indicated antibodies. […] This effect is consistent with lack of sensitivity of the mutant Rhebs to TSC1/TSC2. Thus the Rheb mutants S21L, T23M, G29S, Y35N and E40K promote mTORC1 signalling in the absence of upstream activation due to insensitivity to the GAP activity of the TSC complex.
A) Recombinant GST-Rheb proteins were subjected to GTPase assays in the presence of FLAG-TSC1, FLAG-TSC2 and [α-^32P]GTP. Nucleotide-bound GST-Rheb was purified from the reaction mixture using 20 μl glutathione bead slurry. Radioactive GDP and GTP were separated by thin-layer chromatography and visualized by phosphorimager.

Entries after “also recorded” stand apart in the source; their conditions may differ.

Turning to “Rheb-T23M: human Rheb protein with a methionine variant at residue 23 (T23M), SEQ ID NO. 3”, the “mTOR localisation to the lysosome (overlap with LAMP1)” value in assay [1] was “promote localisation; also recorded: strong mTOR localisation on lysosomes”. The “hydrolysis of GTP bound to Rheb promoted by TSC1/TSC2” value in the assay with TSC1/TSC2 is given as “completely unable to promote hydrolysis of GTP; also recorded: did not promote hydrolysis of GTP”.
